Legend:
[1] = tested on: P-15-induced CRE induction; experiment: P-15-induced CRE induction in GPR64-transfected HEK cells after preincubation with kinase inhibitors; type: cell-based, human; conditions: 1 hr preincubation (H-89 20 μM, U0126 10 μM) before 100 μM P-15 for 5 hrs
Protocol: FIG. 7. HEK cells were transfected with pCRE-Luc and GPR64 and were preincubated with DMSO (vehicle), H-89 (PKA inhibitor, 20 μM) or U0126 (MEK inhibitor, 10 μM) for 1 hr before stimulation with either DMSO or 100 μM P-15 peptide for 5 hrs. Luciferase assay data are normalized to vehicle-preincubated, DMSO stimulated cells. Data are mean±SD from 3 independent experiments conducted in triplicates. *: P<0.05, **: P<0.01.
HEK cells were seeded in white opaque 96-well plates (30,000 cell/well) and were transfected with pCRE-Luc (100 ng/well) along with different doses of empty or GPR64-expressing plasmids. Cell were either left untreated or stimulated with different concentrations of P-15 peptide for 5 hrs at 37° C. Luminescence was measured in a FLEXStationIII plate reader (Molecular Devices).

HEK-CaSR cells = experiment: cAMP accumulation assay in HEK-CaSR cells; type: cell-based, human; conditions: activation of CaSR by 3 mM Ca^2+, forskolin-stimulated cells
[2] = tested on: tumor cells from tertiary hyperparathyroidism; experiment: PTH secretion from isolated tumor cells of tertiary hyperparathyroidism glands; type: cell-based, human
Protocol: (§1) FIG. 14A. Tertiary hyperparathyroidism following kidney transplantation. […] Isolated tumor cells from tertiary hyperparathyroidism gland A were stimulated with calcium (CaSR agonist) and P-15 peptide (GPR64 agonist) in vitro and PTH secretion was measured.
as §1, with “14B.” for “14A.”, “C” for “A”, “measured. Cells express very high levels of GPR64 and are unresponsive to calcium-mediated suppression of PTH secretion.” for “measured.”

[3] = tested on: human parathyroid adenoma cells; experiment: PTH secretion from freshly dispersed human parathyroid adenoma cells (intact PTH ELISA); type: cell-based; conditions: 30 min
Protocol: Dispersed primary human parathyroid cells were rested for 1 hr at 37° C. in keratinocyte-SFM media (Thermo Fisher Scientific#37010-022) supplemented with the manufacturer's provided media supplements, antibiotics and 1.25 mM Ca^2+. Cells were then centrifuged and transferred to KSFM media with various concentrations of Ca^2+, P-15 peptide, forskolin and volumetric equivalent of DMSO for 30 min at 37° C. Supernatants were collected by centrifugation at 10,000 rpm, 5 min at 4° C. and were stored in −80 for determination of intact PTH.
Human intact PTH (1-84) in cell supernatants was measured in a colorimetric ELISA assay (Immutopics International #60-3000).

GPR64 [4] = target: T1, GPR64 (Homo sapiens, UniProt Q8IZP9); experiment: CRE reporter gene assay (pCRE-Luc) in HEK cells transfected with GPR64; type: cell-based; design: The human GPR64 variant 1 (full length with 1017 amino acids); expressed in transfected cells; host or cells: AD-293 (HEK) cells, transient transfection with pcDNA3.1-GPR64; conditions: increasing concentrations of P-15, 5 hrs
T1 sequence (Q8IZP9 38-1017): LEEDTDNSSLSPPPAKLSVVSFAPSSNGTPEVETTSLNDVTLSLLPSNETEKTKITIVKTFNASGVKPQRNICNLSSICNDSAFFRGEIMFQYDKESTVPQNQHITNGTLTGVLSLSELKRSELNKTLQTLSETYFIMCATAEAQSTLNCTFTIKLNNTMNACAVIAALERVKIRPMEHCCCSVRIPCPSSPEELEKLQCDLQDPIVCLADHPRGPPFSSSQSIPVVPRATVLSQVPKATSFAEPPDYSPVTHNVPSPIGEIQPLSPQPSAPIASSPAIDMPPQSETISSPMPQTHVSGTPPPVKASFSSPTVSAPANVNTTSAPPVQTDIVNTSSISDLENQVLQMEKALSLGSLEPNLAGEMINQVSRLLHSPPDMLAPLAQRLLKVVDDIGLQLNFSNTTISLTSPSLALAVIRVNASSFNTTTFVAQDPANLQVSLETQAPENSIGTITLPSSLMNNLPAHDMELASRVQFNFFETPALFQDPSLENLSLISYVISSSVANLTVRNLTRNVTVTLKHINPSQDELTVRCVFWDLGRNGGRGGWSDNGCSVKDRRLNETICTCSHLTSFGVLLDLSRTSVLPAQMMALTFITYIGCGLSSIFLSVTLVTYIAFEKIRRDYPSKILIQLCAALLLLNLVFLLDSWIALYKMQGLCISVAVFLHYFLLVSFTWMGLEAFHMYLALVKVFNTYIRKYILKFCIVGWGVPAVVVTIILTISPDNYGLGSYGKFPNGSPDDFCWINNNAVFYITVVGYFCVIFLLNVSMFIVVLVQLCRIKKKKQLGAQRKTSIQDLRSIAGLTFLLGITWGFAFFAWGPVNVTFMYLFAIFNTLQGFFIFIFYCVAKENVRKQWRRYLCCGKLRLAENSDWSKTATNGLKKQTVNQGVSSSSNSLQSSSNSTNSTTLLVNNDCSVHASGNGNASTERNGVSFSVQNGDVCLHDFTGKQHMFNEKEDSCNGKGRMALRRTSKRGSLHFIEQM
Protocol: (§2) FIG. 2. (A) HEK cells were transfected with pCRE-Luc in combination with 200 ng of pcDNA3.1, GPR64 or GPR64ΔNTF plasmids and were stimulated with increasing concentrations of 15 amino acid-long human GPR64 peptide (P-15) for 5 hrs. Luciferase activity (CRE induction) was measured and data were normalized to the values of cells transfected with pcDNA3.1. Data are mean±SD from 3-4 independent experiments conducted in triplicates. (B) Forty eight hrs post-transfection with pcDNA3.1, GPR64 or GPR64ΔNTF plasmids, HEK cells were stimulated with DMSO (vehicle) or 100 μM P-15 peptide for 30 min and cAMP accumulation was measured in an ELISA assay at 405 nm. […] (C) Freshly isolated human adenoma parathyroid cells were stimulated with increasing concentrations of Ca^2+ and P-15 or DMSO (vehicle) for 30 min and the concentration of secreted intact PTH was measured by ELISA. […] (D) Freshly isolated human adenoma parathyroid cells were stimulated with increasing concentrations of Ca^2+ and forskolin (FSK, 3 and 5 μM) or DMSO (vehicle) for 30 min and the concentration of secreted intact PTH was measured by ELISA. […]
(§3) HEK cells were seeded in white opaque 96-well plates (30,000 cell/well) and were transfected with pCRE-Luc (100 ng/well) along with different doses of empty or GPR64-expressing plasmids. […] Luminescence was measured in a FLEXStationIII plate reader (Molecular Devices).

GPR64ΔNTF [5] = target: T2, GPR64ΔNTF (Homo sapiens, UniProt Q8IZP9); experiment: CRE reporter gene assay (pCRE-Luc) in HEK cells transfected with GPR64ΔNTF; type: cell-based; conditions: increasing concentrations of P-15, 5 hrs
T2 construct: The human GPR64 variant 1 (full length with 1017 amino acids); expressed in transfected cells; host or cells: AD-293 (HEK) cells, transient transfection with pcDNA3.1-GPR64ΔNTF
T2 sequence (Q8IZP9 607-1017 limits assumed, stated change not applied): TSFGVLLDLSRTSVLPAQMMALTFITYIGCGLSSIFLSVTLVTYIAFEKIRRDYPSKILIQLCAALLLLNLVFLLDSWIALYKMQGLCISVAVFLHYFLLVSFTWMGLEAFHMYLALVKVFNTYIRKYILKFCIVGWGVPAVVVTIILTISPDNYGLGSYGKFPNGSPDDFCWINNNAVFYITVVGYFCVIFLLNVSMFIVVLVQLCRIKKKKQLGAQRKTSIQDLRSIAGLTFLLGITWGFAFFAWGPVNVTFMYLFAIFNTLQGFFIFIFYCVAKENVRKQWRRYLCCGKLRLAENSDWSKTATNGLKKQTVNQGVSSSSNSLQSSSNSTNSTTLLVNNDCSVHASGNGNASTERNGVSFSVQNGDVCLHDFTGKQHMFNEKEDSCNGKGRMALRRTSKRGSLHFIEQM
Protocol: as §2, §3

GPR64ΔNTF [6] = target: T2, GPR64ΔNTF; experiment: cAMP accumulation assay in HEK-CaSR cells transfected with GPR64ΔNTF; type: cell-based; conditions: concomitant 3 mM Ca^2+ and 100 μM P-15
GPR64 [7] = target: T1, GPR64; experiment: cAMP accumulation assay (ELISA) in HEK cells transfected with GPR64; type: cell-based; design: The human GPR64 variant 1 (full length with 1017 amino acids); expressed in transfected cells; host or cells: AD-293 (HEK) cells, transient transfection with pcDNA3.1-GPR64; conditions: 100 μM P-15, 30 min, 48 hrs post-transfection
Protocol: FIG. 2. (A) HEK cells were transfected with pCRE-Luc in combination with 200 ng of pcDNA3.1, GPR64 or GPR64ΔNTF plasmids and were stimulated with increasing concentrations of 15 amino acid-long human GPR64 peptide (P-15) for 5 hrs. Luciferase activity (CRE induction) was measured and data were normalized to the values of cells transfected with pcDNA3.1. Data are mean±SD from 3-4 independent experiments conducted in triplicates. (B) Forty eight hrs post-transfection with pcDNA3.1, GPR64 or GPR64ΔNTF plasmids, HEK cells were stimulated with DMSO (vehicle) or 100 μM P-15 peptide for 30 min and cAMP accumulation was measured in an ELISA assay at 405 nm. Data were corrected to the protein concentration in samples. Data are mean±SD from 3 independent experiments conducted in triplicates. *: P<0.05, ****: P<0.0001. (C) Freshly isolated human adenoma parathyroid cells were stimulated with increasing concentrations of Ca^2+ and P-15 or DMSO (vehicle) for 30 min and the concentration of secreted intact PTH was measured by ELISA. Data were normalized to the PTH secretion in vehicle-treated cells cultured in 0.5 mM Ca^2+. […] (D) Freshly isolated human adenoma parathyroid cells were stimulated with increasing concentrations of Ca^2+ and forskolin (FSK, 3 and 5 μM) or DMSO (vehicle) for 30 min and the concentration of secreted intact PTH was measured by ELISA. […]

GPR64 [8] = target: T1, GPR64; experiment: cAMP accumulation assay in HEK-CaSR cells transfected with GPR64; type: cell-based; design: The human GPR64 variant 1 (full length with 1017 amino acids); expressed in transfected cells; host or cells: HEK-CaSR cells (AD-293 clone stably expressing FLAG-tagged human CaSR), transient transfection with pcDNA3.1-GPR64; conditions: 100 μM P-15, 30 min, 1.25 or 3 mM Ca^2+

N#CC(=C(/N)Sc1ccccc1N)/C(C#N)=C(\N)Sc1ccccc1N [U0126]
effect on P-15-induced CRE induction [1]: did not inhibit CRE induction

[Ca+2].[Cl-].[Cl-] [Calcium, Calcium chloride, reference compound]
cAMP level (HEK-CaSR cells): suppressed cAMP levels significantly
calcium-mediated suppression of PTH secretion ([2]; tertiary hyperparathyroidism gland C, cells express very high levels of GPR64): unresponsive
PTH secretion ([3]; increasing concentrations of Ca^2+): suppressed PTH secretion in a dose-dependent manner

O=S(=O)(NCCNC/C=C/c1ccc(Br)cc1)c1cccc2cnccc12 [H-89]
effect on P-15-induced CRE induction [1]: blunted the P-15-induced CRE induction

TSFGVLLDLSRTSVL [P-15, GPR64 agonist]
CRE induction (luciferase activity) (GPR64 [4]; GPR64-transfected HEK cells): concentration-dependent CRE induction
CRE induction (luciferase activity) (GPR64 [4]; control cells (pcDNA3.1-transfected HEK)): absent
PTH secretion ([2]; tertiary hyperparathyroidism gland A, calcium plus P-15 in vitro): higher PTH secretion
CRE induction (luciferase activity) (GPR64ΔNTF [5]): concentration-dependent CRE induction
intracellular cAMP (GPR64ΔNTF [6]): restored the intracellular cAMP to the level of cells activated only with P-15 in normocalcemic conditions
cAMP production (GPR64 [7]): specifically activates GPR64 to produce cAMP
PTH secretion ([3]; P-15 with various concentrations of Ca^2+): elevated the PTH secretion
cAMP production (GPR64 [8]): increased cAMP production irrespective of CaSR activation with 3 mM Ca^2+

Source: US20170333522A1, “EXPRESSION AND FUNCTION OF GPR64/ADGRG2 IN ENDOCRINE SYSTEMS AND METHODS TO TARGET IT THERAPEUTICALLY” (priority 2016, published 2017)
